Numbers after ± are expanded uncertainties.
What was measured:
[1] = 101.3 kPa, Liquid; for viscosity: Falling or rolling sphere viscometry; for mass density: Vibrating tube method
[2] = xn = mol fraction of the nth substance listed; settings: 101.3 kPa, Liquid, x2 = 0; for viscosity: Falling or rolling sphere viscometry; for mass density: Vibrating tube method

| Structure (SMILES) | viscosity ([1]; 288.15 K) | mass density ([1]; 288.15 K) | viscosity ([1]; 293.15 K) | mass density ([1]; 293.15 K) | viscosity ([1]; 298.15 K) | mass density ([1]; 298.15 K) | viscosity ([1]; 303.15 K) | mass density ([1]; 303.15 K) | viscosity ([1]; 308.15 K) | mass density ([1]; 308.15 K) | viscosity ([1]; 313.15 K) | mass density ([1]; 313.15 K) | viscosity ([1]; 318.15 K) | mass density ([1]; 318.15 K) | viscosity ([1]; 323.15 K) | mass density ([1]; 323.15 K) | viscosity ([1]; 328.15 K) | mass density ([1]; 328.15 K) | viscosity ([2]; 288.15 K) | mass density ([2]; 288.15 K) | other results |
| --- | --- | --- | --- | --- | --- | --- | --- | --- | --- | --- | --- | --- | --- | --- | --- | --- | --- | --- | --- | --- | --- |
| CCCC[n+]1ccn(C)c1.O=S(=O)([N-]S(=O)(=O)C(F)(F)F)C(F)(F)F | 78.02 ± 2 mPa·s | 1445.66 ± 3.5 kg/m3 | 61.32 ± 1.4 mPa·s | 1440.84 ± 3.5 kg/m3 | 48.93 ± 1.1 mPa·s | 1436.01 ± 3.5 kg/m3 | 39.84 ± 0.88 mPa·s | 1431.21 ± 3.5 kg/m3 | 32.91 ± 0.73 mPa·s | 1426.43 ± 3.5 kg/m3 | 27.56 ± 0.61 mPa·s | 1421.66 ± 3.5 kg/m3 | 23.33 ± 0.51 mPa·s | 1416.91 ± 3.4 kg/m3 | 19.97 ± 0.44 mPa·s | 1412.17 ± 3.4 kg/m3 | 17.41 ± 0.38 mPa·s | 1407.45 ± 3.4 kg/m3 | – | – | – |
| CCn1cc[n+](C)c1.O=S(=O)([N-]S(=O)(=O)C(F)(F)F)C(F)(F)F | 49.41 ± 1.1 mPa·s | 1528.55 ± 3.7 kg/m3 | 40.36 ± 0.89 mPa·s | 1523.47 ± 3.7 kg/m3 | 33.52 ± 0.74 mPa·s | 1518.39 ± 3.7 kg/m3 | 28.35 ± 0.62 mPa·s | 1513.34 ± 3.7 kg/m3 | 24.15 ± 0.53 mPa·s | 1508.3 ± 3.7 kg/m3 | 20.76 ± 0.46 mPa·s | 1503.28 ± 3.7 kg/m3 | 17.9 ± 0.39 mPa·s | 1498.27 ± 3.6 kg/m3 | 15.93 ± 0.35 mPa·s | 1493.28 ± 3.6 kg/m3 | 14.26 ± 0.31 mPa·s | 1488.31 ± 3.6 kg/m3 | – | – | – |
| CCOC(=O)OCC [diethyl carbonate] | 0.871 ± 0.019 mPa·s | 980.49 ± 2.4 kg/m3 | 0.812 ± 0.018 mPa·s | 974.91 ± 2.4 kg/m3 | 0.757 ± 0.017 mPa·s | 969.3 ± 2.3 kg/m3 | 0.708 ± 0.015 mPa·s | 963.66 ± 2.3 kg/m3 | 0.664 ± 0.015 mPa·s | 958 ± 2.3 kg/m3 | 0.625 ± 0.014 mPa·s | 952.32 ± 2.3 kg/m3 | 0.589 ± 0.013 mPa·s | 946.6 ± 2.3 kg/m3 | 0.556 ± 0.012 mPa·s | 940.86 ± 2.3 kg/m3 | 0.525 ± 0.011 mPa·s | 935.08 ± 2.3 kg/m3 | – | – | – |
| CCOC(=O)OCC [diethyl carbonate] + CCCC[n+]1ccn(C)c1.O=S(=O)([N-]S(=O)(=O)C(F)(F)F)C(F)(F)F | – | – | – | – | – | – | – | – | – | – | – | – | – | – | – | – | – | – | 0.871 ± 0.019 mPa·s | 980.49 ± 2.4 kg/m3 | viscosity ([2]; 293.15 K): 0.812 ± 0.018 mPa·s; mass density ([2]; 293.15 K): 974.91 ± 2.4 kg/m3; viscosity ([2]; 298.15 K): 0.757 ± 0.017 mPa·s; mass density ([2]; 298.15 K): 969.3 ± 2.3 kg/m3; viscosity ([2]; 303.15 K): 0.708 ± 0.015 mPa·s; mass density ([2]; 303.15 K): 963.66 ± 2.3 kg/m3; viscosity ([2]; 308.15 K): 0.664 ± 0.015 mPa·s; mass density ([2]; 308.15 K): 958 ± 2.3 kg/m3; viscosity ([2]; 313.15 K): 0.625 ± 0.014 mPa·s; mass density ([2]; 313.15 K): 952.32 ± 2.3 kg/m3; viscosity ([2]; 318.15 K): 0.589 ± 0.013 mPa·s; mass density ([2]; 318.15 K): 946.6 ± 2.3 kg/m3; viscosity ([2]; 323.15 K): 0.556 ± 0.012 mPa·s; mass density ([2]; 323.15 K): 940.86 ± 2.3 kg/m3; viscosity ([2]; 328.15 K): 0.525 ± 0.011 mPa·s; mass density ([2]; 328.15 K): 935.08 ± 2.3 kg/m3 |
| CCOC(=O)OCC [diethyl carbonate] + CCn1cc[n+](C)c1.O=S(=O)([N-]S(=O)(=O)C(F)(F)F)C(F)(F)F | – | – | – | – | – | – | – | – | – | – | – | – | – | – | – | – | – | – | 0.871 ± 0.019 mPa·s | 980.49 ± 2.4 kg/m3 | viscosity ([2]; 293.15 K): 0.812 ± 0.018 mPa·s; mass density ([2]; 293.15 K): 974.91 ± 2.4 kg/m3; viscosity ([2]; 298.15 K): 0.757 ± 0.017 mPa·s; mass density ([2]; 298.15 K): 969.3 ± 2.3 kg/m3; viscosity ([2]; 303.15 K): 0.708 ± 0.015 mPa·s; mass density ([2]; 303.15 K): 963.66 ± 2.3 kg/m3; viscosity ([2]; 308.15 K): 0.664 ± 0.015 mPa·s; mass density ([2]; 308.15 K): 958 ± 2.3 kg/m3; viscosity ([2]; 313.15 K): 0.625 ± 0.014 mPa·s; mass density ([2]; 313.15 K): 952.32 ± 2.3 kg/m3; viscosity ([2]; 318.15 K): 0.589 ± 0.013 mPa·s; mass density ([2]; 318.15 K): 946.6 ± 2.3 kg/m3; viscosity ([2]; 323.15 K): 0.556 ± 0.012 mPa·s; mass density ([2]; 323.15 K): 940.86 ± 2.3 kg/m3; viscosity ([2]; 328.15 K): 0.525 ± 0.011 mPa·s; mass density ([2]; 328.15 K): 935.08 ± 2.3 kg/m3 |
| COC(=O)OC [dimethyl carbonate] | 0.669 ± 0.015 mPa·s | 1076.39 ± 2.6 kg/m3 | 0.626 ± 0.014 mPa·s | 1069.86 ± 2.6 kg/m3 | 0.587 ± 0.013 mPa·s | 1063.27 ± 2.6 kg/m3 | 0.552 ± 0.012 mPa·s | 1056.65 ± 2.5 kg/m3 | 0.52 ± 0.011 mPa·s | 1050 ± 2.5 kg/m3 | 0.498 ± 0.011 mPa·s | 1043.29 ± 2.5 kg/m3 | 0.472 ± 0.01 mPa·s | 1036.57 ± 2.5 kg/m3 | 0.45 ± 0.01 mPa·s | 1029.83 ± 2.5 kg/m3 | 0.429 ± 0.009 mPa·s | 1023.03 ± 2.5 kg/m3 | – | – | – |
| COC(=O)OC [dimethyl carbonate] + CCCC[n+]1ccn(C)c1.O=S(=O)([N-]S(=O)(=O)C(F)(F)F)C(F)(F)F | – | – | – | – | – | – | – | – | – | – | – | – | – | – | – | – | – | – | 0.669 ± 0.015 mPa·s | 1076.39 ± 2.6 kg/m3 | viscosity ([2]; 293.15 K): 0.626 ± 0.014 mPa·s; mass density ([2]; 293.15 K): 1069.86 ± 2.6 kg/m3; viscosity ([2]; 298.15 K): 0.587 ± 0.013 mPa·s; mass density ([2]; 298.15 K): 1063.27 ± 2.6 kg/m3; viscosity ([2]; 303.15 K): 0.552 ± 0.012 mPa·s; mass density ([2]; 303.15 K): 1056.65 ± 2.5 kg/m3; viscosity ([2]; 308.15 K): 0.52 ± 0.011 mPa·s; mass density ([2]; 308.15 K): 1050 ± 2.5 kg/m3; viscosity ([2]; 313.15 K): 0.498 ± 0.011 mPa·s; mass density ([2]; 313.15 K): 1043.29 ± 2.5 kg/m3; viscosity ([2]; 318.15 K): 0.472 ± 0.01 mPa·s; mass density ([2]; 318.15 K): 1036.57 ± 2.5 kg/m3; viscosity ([2]; 323.15 K): 0.45 ± 0.01 mPa·s; mass density ([2]; 323.15 K): 1029.83 ± 2.5 kg/m3; viscosity ([2]; 328.15 K): 0.429 ± 0.009 mPa·s; mass density ([2]; 328.15 K): 1023.03 ± 2.5 kg/m3 |
| COC(=O)OC [dimethyl carbonate] + CCn1cc[n+](C)c1.O=S(=O)([N-]S(=O)(=O)C(F)(F)F)C(F)(F)F | – | – | – | – | – | – | – | – | – | – | – | – | – | – | – | – | – | – | 0.669 ± 0.015 mPa·s | 1076.39 ± 2.6 kg/m3 | viscosity ([2]; 293.15 K): 0.626 ± 0.014 mPa·s; mass density ([2]; 293.15 K): 1069.86 ± 2.6 kg/m3; viscosity ([2]; 298.15 K): 0.587 ± 0.013 mPa·s; mass density ([2]; 298.15 K): 1063.27 ± 2.6 kg/m3; viscosity ([2]; 303.15 K): 0.552 ± 0.012 mPa·s; mass density ([2]; 303.15 K): 1056.65 ± 2.5 kg/m3; viscosity ([2]; 308.15 K): 0.52 ± 0.011 mPa·s; mass density ([2]; 308.15 K): 1050 ± 2.5 kg/m3; viscosity ([2]; 313.15 K): 0.498 ± 0.011 mPa·s; mass density ([2]; 313.15 K): 1043.29 ± 2.5 kg/m3; viscosity ([2]; 318.15 K): 0.472 ± 0.01 mPa·s; mass density ([2]; 318.15 K): 1036.57 ± 2.5 kg/m3; viscosity ([2]; 323.15 K): 0.45 ± 0.01 mPa·s; mass density ([2]; 323.15 K): 1029.83 ± 2.5 kg/m3; viscosity ([2]; 328.15 K): 0.429 ± 0.009 mPa·s; mass density ([2]; 328.15 K): 1023.03 ± 2.5 kg/m3 |

— the NIST ThermoML archive (doi:10.1021/acs.jced.8b00591)
